The text below walks through data of PubChem BioAssay (NCI).

Test systems include ACHN renal; HOP-62 NSCLC; IGROV1 ovarian; M14 melanoma; NCI-H226 lung; OVCAR-3 ovarian; SF-539 CNS; SN12C renal; SNB-75 CNS; UACC-62 melanoma.
What all share (assay): DTP human tumour cell line panel, 48 h

The structures appear in SMILES notation. Several values for one entry are separate records, joined by “and”; a condition that tells them apart may be missing. Equal entries are not always repeated.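 How tested: cells in 96-well plates exposed to compound for 48 hours at five concentrations. Abbreviation: GI50, concentration required for 50% inhibition of growth. TGI denotes the concentration required for complete inhibition of growth.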

Broadly, the GI50 is the concentration giving 50% growth inhibition. Usually TGI stands for the concentration giving total growth inhibition. Low readings indicate more potent growth arrest, high ones less potent growth arrest. With `COc1cc(/C(Cl)=C/C=C/C(=O)c2c(C)[n+]([O-])c3ccc(Cl)cc3[n+]2[O-])cc(OC)c1OC`, the GI50 in the assay with ACHN renal is 5.15 µM; in the assay on HOP-62 NSCLC, 7.68 µM; with IGROV1 ovarian it was 3.78 µM; in the assay on M14 melanoma, 3.68 µM; in the assay with NCI-H226 lung, 13.3 µM; with OVCAR-3 ovarian, 2.39 µM. For the same compound, the GI50 in the assay with SF-539 CNS is 3.67 µM; with SN12C renal it was 9.1 µM; in the assay on SNB-75 CNS it was 4.06 µM; in the assay with UACC-62 melanoma, 3.42 µM. The TGI in the assay on ACHN renal is 11.6 µM; in the assay on HOP-62 NSCLC, 24.4 µM; with IGROV1 ovarian it was 13.2 µM; with M14 melanoma, 40.4 µM; in the assay on NCI-H226 lung, over 50 µM; in the assay on OVCAR-3 ovarian it was 10 µM. For the same compound, the total growth inhibition concentration (TGI) is over 50 µM in the assay on SF-539 CNS, over 50 µM with SN12C renal, 19.6 µM in the assay with SNB-75 CNS and 27.1 µM in the assay on UACC-62 melanoma.
Take `C=C1C(=O)O[C@H]2[C@H]1CC/C(CNC(=O)/C=C/c1ccc(Br)cc1)=C\CC[C@@]1(C)O[C@@H]21`: the GI50 in the assay with ACHN renal is 0.848 µM; in the assay on HOP-62 NSCLC, 2.2 µM; with IGROV1 ovarian, 1.24 µM; in the assay on M14 melanoma it was 1.11 µM; in the assay with NCI-H226 lung it was 2.24 µM; in the assay with OVCAR-3 ovarian it was 0.511 µM. Further, the GI50 is 0.873 µM in the assay with SF-539 CNS, 1.22 µM with SN12C renal, 1.23 µM in the assay with SNB-75 CNS and 1.34 µM with UACC-62 melanoma. Besides, the TGI with ACHN renal is 2.08 µM; with HOP-62 NSCLC, 6.87 µM; in the assay on IGROV1 ovarian it was 3.05 µM; in the assay with M14 melanoma it was 2.69 µM; in the assay with NCI-H226 lung, 7.15 µM; with OVCAR-3 ovarian, 1.74 µM. In addition, the TGI came out at 2.28 µM with SF-539 CNS, 3.58 µM with SN12C renal, 2.49 µM with SNB-75 CNS and 2.78 µM in the assay on UACC-62 melanoma.
Regarding `CN1CCN(c2ccc(C(=O)Nc3n[nH]c4ccc(Cc5cc(F)cc(F)c5)cc34)c(NC3CCOCC3)c2)CC1`, the GI50 is 2.25 µM and 1.42 µM with ACHN renal; 2.66 µM in the assay on HOP-62 NSCLC; 0.641 µM and 1.3 µM in the assay with IGROV1 ovarian; 1.58 µM and 1.69 µM in the assay with M14 melanoma; 1.47 µM and 1.36 µM in the assay with NCI-H226 lung; 3.33 µM and 1.47 µM in the assay on OVCAR-3 ovarian. Also, the GI50 is 2.66 µM and 1.56 µM with SF-539 CNS; 2.6 µM and 1.34 µM in the assay on SN12C renal; 1.05 µM with SNB-75 CNS; 1.52 µM and 1.6 µM with UACC-62 melanoma. In addition, the TGI is > 10 µM and 2.8 µM in the assay on ACHN renal; over 10 µM in the assay on HOP-62 NSCLC; 3 µM and 2.72 µM with IGROV1 ovarian; 3.2 µM and 3.4 µM with M14 melanoma; > 10 µM and 3.11 µM with NCI-H226 lung; > 10 µM and 2.84 µM in the assay on OVCAR-3 ovarian. Also, the total growth inhibition concentration (TGI) was > 10 µM and 2.92 µM in the assay with SF-539 CNS; > 10 µM and 2.93 µM with SN12C renal; 2.36 µM in the assay on SNB-75 CNS; 3.03 µM and 3.1 µM with UACC-62 melanoma.
On to `CCCN(CCC)CCCNCc1cc(I)cc(C)c1O`, for which the GI50 with ACHN renal was 17.1 µM; in the assay on HOP-62 NSCLC, 13.4 µM; in the assay with IGROV1 ovarian, 15.6 µM; in the assay with M14 melanoma it was 12.8 µM; in the assay with NCI-H226 lung, 22.3 µM; in the assay with OVCAR-3 ovarian, 14.8 µM. Besides, the GI50 was 14.7 µM in the assay with SF-539 CNS, 28.7 µM in the assay on SN12C renal, 14.6 µM in the assay on SNB-75 CNS and 5.54 µM in the assay with UACC-62 melanoma. In addition, the TGI with ACHN renal is 34.8 µM; in the assay on HOP-62 NSCLC, 26.2 µM; in the assay with IGROV1 ovarian, 29.6 µM; in the assay on M14 melanoma it was 25.4 µM; in the assay on NCI-H226 lung, 66.1 µM; with OVCAR-3 ovarian it was 27.9 µM. The TGI was 27.9 µM in the assay on SF-539 CNS, over 100 µM in the assay on SN12C renal, 29 µM in the assay with SNB-75 CNS and 18.6 µM in the assay on UACC-62 melanoma.
As to `Nc1ccn(C2OC(CO)C(O)C2F)c(=O)n1` (configuration not stated), the GI50 in the assay on ACHN renal, in the assay on HOP-62 NSCLC, with IGROV1 ovarian, in the assay on M14 melanoma, with NCI-H226 lung and in the assay on OVCAR-3 ovarian was over 5000 µM throughout. The GI50 in the assay with SF-539 CNS, in the assay with SN12C renal, in the assay with SNB-75 CNS and in the assay on UACC-62 melanoma was over 5000 µM each time. The TGI in the assay with ACHN renal, in the assay on HOP-62 NSCLC, in the assay on IGROV1 ovarian, with M14 melanoma, in the assay with NCI-H226 lung and in the assay on OVCAR-3 ovarian was over 5000 µM each time. Also, the total growth inhibition concentration (TGI) in the assay on SF-539 CNS, with SN12C renal, with SNB-75 CNS and in the assay with UACC-62 melanoma was over 5000 µM in each case.
For the compound `CCSc1nnc2c(-c3ccccc3)n[nH]c2n1`, the TGI in the assay with ACHN renal, with HOP-62 NSCLC, in the assay on IGROV1 ovarian, with M14 melanoma, in the assay on NCI-H226 lung and with OVCAR-3 ovarian was over 100 µM each time. In addition, the TGI in the assay on SF-539 CNS, in the assay with SNB-75 CNS and in the assay on UACC-62 melanoma was over 100 µM in each case.
Consider `CC1[C@@H]2[C@@H](C=C3C4CCC5Cc6nc7c(nc6C[C@@]5(C)C4C[C@H](O)[C@]32CO)CC2CCC3C4=C[C@H]5O[C@@]6(O[C@@](C)(CO)C[C@@H]6O)C(C)[C@@]5(O)[C@]4(C)[C@@H](O)CC3[C@]2(C)C7)O[C@]12CCC(C)(C)O2` (some centres not stated), for which the GI50 in the assay on HOP-62 NSCLC is under 0.000365 µM; in the assay on IGROV1 ovarian it was 0.0049 µM; in the assay on NCI-H226 lung it was 0.00626 µM; in the assay on OVCAR-3 ovarian, 1.99 µM; in the assay with SF-539 CNS, 0.00363 µM; in the assay with SN12C renal, over 3.65 µM. Besides, the GI50 was 0.000741 µM with SNB-75 CNS and 0.00489 µM in the assay on UACC-62 melanoma. In addition, the TGI in the assay on IGROV1 ovarian was over 3.65 µM; in the assay on M14 melanoma, 0.0639 µM; in the assay with NCI-H226 lung, 0.543 µM and > 3.65 µM; with OVCAR-3 ovarian it was over 3.65 µM; with SN12C renal, over 3.65 µM; in the assay on SNB-75 CNS, 0.0159 µM and 0.0134 µM. Moreover, the total growth inhibition concentration (TGI) in the assay on UACC-62 melanoma turned out to be 0.0745 µM.
In the case of `COc1cc(-c2nn3c(/C=C4/C(=O)Nc5ccccc54)c(-c4ccc(C)cc4)nc3s2)cc(OC)c1OC`, the GI50 with ACHN renal is 4.98 µM; in the assay on HOP-62 NSCLC, 4.14 µM; in the assay on IGROV1 ovarian, 4.75 µM; in the assay on NCI-H226 lung, 22.5 µM; with OVCAR-3 ovarian, 2.9 µM; in the assay on SF-539 CNS it was 12.9 µM. Also, the GI50 was 5.26 µM in the assay on SN12C renal, 0.552 µM in the assay with SNB-75 CNS and 5.47 µM in the assay on UACC-62 melanoma. Also, the TGI in the assay with ACHN renal was 23.7 µM; in the assay on HOP-62 NSCLC it was 23.3 µM; with IGROV1 ovarian it was over 100 µM; with NCI-H226 lung, 59.9 µM; in the assay on OVCAR-3 ovarian, over 100 µM; in the assay with SF-539 CNS it was 96 µM. In addition, the concentration for total growth inhibition (TGI) is over 100 µM in the assay on SN12C renal, 10.7 µM in the assay with SNB-75 CNS and over 100 µM in the assay on UACC-62 melanoma.
